Patent publication US5036062A, “Novel esters” (Pharmacia AB, priority 1988, dated 1991)
Where a name gives a salt, the structure may show the parent alone.

Key:
[1] = Oral bioavailability of estramustine in dogs (AUC of estramustine after oral dosing); assay type: in vivo, Beagle dogs; details: oral water solution, dose equivalent to 140 mg estramustine phosphate, fasting; for AUC of estramustine, Mean ± S.D.: four Beagle dogs
Protocol: Different formulations were administered orally to groups of four Beagle dogs. The dose was equivalent to 140 mg of estramustine phosphate. The animals were fasting before dosing and given 50 ml 0.01 M hydrochloric acid after the dose. Blood samples were analysed for estramustine by means of gas chromatography. (Andersson, S-B, et al., Acta Pharm.Suec. 19, 1 (1982).
The following formulations were used: […]
1. Water solution of estramustine phosphate disodium salt
2. Water solution of compound No. 6:2
3. Water solution of compound No. 4:2

[2] = Interactions with calcium ions (observation of precipitate in acetate buffer pH=4.5 after adding equimolar calcium ions); assay type: physicochemical; details: for Observation: pH=4.5 buffer, observed for 3 h
Protocol: Solution A: 0.3 mole/l calcium diethanesulfonate. Calcium carbonate ([…], 15 mmole) is dissolved by adding a 1.0 mole/l ethanesulfonic acid solution until a stable pH=5.3 is obtained. The solution is diluted with water to 50 ml.
Solution B: 0.03 mole/l calcium diethanesulfonate. One part of solution A is diluted with 9 parts of water.
Solution C: 0.05 mole/l sodium acetate/acetic acid buffer with pH=4.5. Glacial acetic acid (3.0 g, 0.05 mole) is dissolved in 800 ml of water, titrated with 1 mole/l sodium hydroxide solution to pH=4.5 and diluted to 1 l.
The test compound is dissolved in 50 ml of solution C. A clear solution is obtained in a few minutes. After 5 minutes an equimolar amount of calcium ions are added by adding 1 ml of solution A or B. The mixture is observed for 3 h.

## CNCC(=O)O[C@H]1CC[C@H]2[C@@H]3CCc4cc(OC(=O)N(CCCl)CCCl)ccc4[C@H]3CC[C@]12C [Compound No. 4:2, 17-Estramustine N-methylaminoacetate, ethanesulfonate]
[1]; Dog No. 8729
  AUC of estramustine: 94.0 ng/mlxhours
[1]; Dog No. 8731
  AUC of estramustine: 79.8 ng/mlxhours
[1]; Dog No. 8735
  AUC of estramustine: 2.6 ng/mlxhours
[1]; Dog No. 8742
  AUC of estramustine: 153.4 ng/mlxhours
[1]
  AUC of estramustine, Mean ± S.D.: 82.6 ± 62.0 ng/mlxhours

## C[C@]12CC[C@@H]3c4ccc(OC(=O)N(CCCl)CCCl)cc4CC[C@H]3[C@@H]1CC[C@@H]2OC(=O)CN [Compound No. 6:2, 17-estramustine aminoacetate, methanesulfonate]
[2]; 178 mg, 0.3 mmole compound, solution A, 0.3 mmole calcium ions
  Observation: Remains clear
[1]; Dog No. 8727
  AUC of estramustine: 100 ng/mlxhours
[1]; Dog No. 8729
  AUC of estramustine: 140 ng/mlxhours
[1]; Dog No. 8731
  AUC of estramustine: 45.8 ng/mlxhours
[1]; Dog No. 8733
  AUC of estramustine: 184.8 ng/mlxhours
[1]
  AUC of estramustine, Mean ± S.D.: 118 ± 59 ng/mlxhours

## C[C@]12CC[C@@H]3c4ccc(OC(=O)N(CCCl)CCCl)cc4CC[C@H]3[C@@H]1CC[C@@H]2OP(=O)(O)O [Estramustine phosphate disodium salt, 17-estramustine dihydrogen phosphate ester, reference compound]
[2]; 16 mg, 0.03 mmole compound, solution B, 0.03 mmole calcium ions
  Observation: Becomes unclear
[2]; novel compounds at concentrations 10 times higher than those of estramustine phosphate disodium salt and calcium ions giving immediate undissolved calcium salt
  precipitate in the presence of calcium ions (summary): immediate formation of an undissolved estramustine phosphate calcium salt
[1]; Dog No. 8727
  AUC of estramustine: 147 ng/mlxhours
[1]; Dog No. 8729
  AUC of estramustine: 16.4 ng/mlxhours
[1]; Dog No. 8731
  AUC of estramustine: 34.0 ng/mlxhours
[1]; Dog No. 8733
  AUC of estramustine: 19.5 ng/mlxhours
[1]; listed as Etramustine phosphate disodium salt
  AUC of estramustine, Mean ± S.D.: 54.3 ± 62.4 ng/mlxhours
